Experiments:
Type in all cases: in vivo
[1] = tested on: Stellaria media (STEME); assay: Post-emergence action against weeds, greenhouse pots, visual scoring; conditions: 10 DAT
Description: (§1) Seeds or rhizome pieces of mono- and dicotyledonous harmful and useful plants were placed in peat pots (diameter 4 cm) filled with sandy loam and then covered with soil. The pots were kept in a greenhouse under optimum conditions. In addition, harmful plants encountered in paddy rice cultivation were cultivated in pots with a water level 2 cm above the soil surface.
(§2) About three weeks after the start of the cultivation, the test plants were treated at the 2- to 3-leaf stage. The herbicides, formulated as powder or liquid concentrates, were, either alone or in the combinations according to the invention, sprayed in various dosages on to the green parts of the plants using an application rate of 600 l of water/ha (converted). For further cultivation of the plants, the pots were then again kept under optimum conditions in a greenhouse.
(§3) The visual scoring of the herbicidal effects was carried out in intervals up to 21 days after the treatment. Scoring was carried out in percent in comparison to the untreated control plants. 0%=no herbicidal activity, 100%=complete herbicidal activity=complete kill.
(§4) The percentages from the treatments with the herbicides alone (=individual application) and with the combinations according to the invention (=mixtures) were employed to calculate interactions using the method of Colby. When the observed efficacies of the mixtures exceed the formal sum of the values of the tests with individual applications, they also exceed the expected value according to Colby, which is calculated using the formula below (cf. S. R. Colby; in Weeds 15 (1967) pp. 20 to 22):
(§5) • A, B=activity of components A and B in percent at a dosage of a and b g of ai/ha (=gramm of active substance per hectare), respectively. • E=expected value in % at a dosage of a+b g of ai/ha.

[2] = tested on: Alopecurus myosuroides (ALOMY); assay: as above
Description: as §1, §2, §3, §4, §5

[3] = tested on: Cyperus esculentus (CYPES); assay: as above; conditions: 21 DAT
Description: as §1, §2, §3, §4, §5

[4] = tested on: Lolium multiflorum (LOLMU); assay: as above
Description: as §1, §2, §3, §4, §5

[5] = tested on: Setaria viridis (SETVI); assay: as above; conditions: 21 DAT
Description: as §1, §2, §3, §4, §5

[6] = tested on: Zea mays (ZEAMX); assay: Post-emergence action, greenhouse pots, visual scoring; conditions: component B 60 g of ai/ha
Description: as §1, §2, §3, §4, §5

[7] = tested on: Amaranthus retroflexus (AMARE); assay: Post-emergence action against weeds, greenhouse pots, visual scoring; conditions: 21 DAT, component B 60 g of ai/ha
Description: as §1, §2, §3, §4, §5

[8] = tested on: Avena fatua (AVEFA); assay: as above; conditions: 21 DAT, component B 60 g of ai/ha
Description: as §1, §2, §3, §4, §5

[9] = tested on: Fallopia (ex Polygonum) convolvulus (POLCO); assay: as above; conditions: 21 DAT
Description: as §1, §2, §3, §4, §5

[10] = tested on: Matricaria inodora (MATIN); assay: as above; conditions: 21 DAT
Description: as §1, §2, §3, §4, §5

[11] = tested on: Viola tricolor (VIOTR); assay: as above
Description: as §1, §2, §3, §4, §5

[12] = tested on: Triticum aestivum (TRZAS); assay: Post-emergence action, greenhouse pots, visual scoring; conditions: 10 DAT, component B 180 g of ai/ha
Description: as §1, §2, §3, §4, §5

[13] = 21 DAT, component B 60 g of ai/ha
[14] = 21 DAT, component B 180 g of ai/ha
[15] = 10 DAT, component B 60 g of ai/ha
[16] = 10 DAT, component B 180 g of ai/ha

Compound: COc1nc(OC)nc(C(=O)c2cccc(F)c2N(C)S(=O)(=O)C(F)F)n1 [A-1]
- % activity found ([1]; component A 4 g of ai/ha): 70%
- % activity found ([1]; component A 12 g of ai/ha): 70%

Compound: COc1c(Cl)ccc(Cl)c1C(=O)O [B1-1, 3,6-dichloro-2-methoxybenzoic acid]
- % activity found [2, 13]: 0%
- % activity found [2, 14]: 0%
- % activity found ([3]; component B 60 g of ai/ha): 0%
- % activity found ([3]; component B 180 g of ai/ha): 0%
- % activity found [4, 15]: 0%
- % activity found [4, 16]: 10%
- % activity found [4, 13]: 0%
- % activity found ([5]; component B 60 g of ai/ha): 0%
- % activity found ([5]; component B 180 g of ai/ha): 20%
- % activity found ([6]; 10 DAT): 0%

Compound: O=C(O)c1c(Cl)ccc2cc(Cl)cnc12 [B3-1, 3,7-dichloro-8-quinolinecarboxylic acid]
- % activity found [2, 15]: 0%
- % activity found [2, 16]: 0%
- % activity found [2, 13]: 0%
- % activity found [2, 14]: 0%
- % activity found [7]: 40%
- % activity found [8]: 0%
- % activity found ([3]; component B 60 g of ai/ha): 0%
- % activity found ([3]; component B 180 g of ai/ha): 0%
- % activity found ([9]; component B 60 g of ai/ha): 0%
- % activity found ([9]; component B 180 g of ai/ha): 0%
- % activity found [4, 15]: 0%
- % activity found [4, 16]: 0%
- % activity found ([10]; component B 60 g of ai/ha): 0%
- % activity found ([10]; component B 180 g of ai/ha): 0%
- % activity found ([1]; component B 60 g of ai/ha): 10%
- % activity found [11, 16]: 20%
- % activity found [11, 13]: 40%
- % activity found [12]: 0%
- % activity found ([6]; 10 DAT): 0%
- % activity found ([6]; 21 DAT): 0%
